Results published in ChEMBL document CHEMBL1165959, “Novel tricyclic Delta(2)-isoxazoline and 3-oxo-2-methyl-isoxazolidine derivatives: synthesis and binding affinity at neuronal nicotinic acetylcholine receptor subtypes” (Bioorg Med Chem, 2010).

Tests used:
[1] = molecular target: Neuronal acetylcholine receptor subunit alpha-7 (Rattus norvegicus, UniProt Q05941); experiment: Displacement of [125I]alpha-Bungarotoxin from alpha7 nAChR in rat cortical membrane; assay type: cell membranes
[2] = molecular target: Neuronal acetylcholine receptor; alpha4/beta2 (Rattus norvegicus, UniProt P09483+P12390); experiment: Displacement of (+/-)-[3H]epibatidine from alpha4beta2 nAChR in rat cortical membrane; assay type: cell membranes
Neuronal acetylcholine receptor; alpha4/beta2, sequence (P09483 whole entry): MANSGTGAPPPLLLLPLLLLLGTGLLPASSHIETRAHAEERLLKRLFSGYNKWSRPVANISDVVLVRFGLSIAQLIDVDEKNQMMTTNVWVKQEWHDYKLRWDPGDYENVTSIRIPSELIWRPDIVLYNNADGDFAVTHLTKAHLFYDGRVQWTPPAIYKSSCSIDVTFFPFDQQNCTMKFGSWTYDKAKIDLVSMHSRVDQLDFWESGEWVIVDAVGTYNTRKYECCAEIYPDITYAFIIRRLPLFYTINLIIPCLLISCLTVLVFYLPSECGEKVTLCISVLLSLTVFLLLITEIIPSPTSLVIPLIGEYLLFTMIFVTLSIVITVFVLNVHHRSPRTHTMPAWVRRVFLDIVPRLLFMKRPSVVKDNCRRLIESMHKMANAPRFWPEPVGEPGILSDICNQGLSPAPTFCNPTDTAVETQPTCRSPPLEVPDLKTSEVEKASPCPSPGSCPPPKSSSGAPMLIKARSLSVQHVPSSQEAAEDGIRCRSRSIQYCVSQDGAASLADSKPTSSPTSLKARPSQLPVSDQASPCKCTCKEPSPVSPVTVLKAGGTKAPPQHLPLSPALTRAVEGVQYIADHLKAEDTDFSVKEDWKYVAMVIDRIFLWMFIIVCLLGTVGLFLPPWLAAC
Neuronal acetylcholine receptor; alpha4/beta2, sequence (P12390 whole entry): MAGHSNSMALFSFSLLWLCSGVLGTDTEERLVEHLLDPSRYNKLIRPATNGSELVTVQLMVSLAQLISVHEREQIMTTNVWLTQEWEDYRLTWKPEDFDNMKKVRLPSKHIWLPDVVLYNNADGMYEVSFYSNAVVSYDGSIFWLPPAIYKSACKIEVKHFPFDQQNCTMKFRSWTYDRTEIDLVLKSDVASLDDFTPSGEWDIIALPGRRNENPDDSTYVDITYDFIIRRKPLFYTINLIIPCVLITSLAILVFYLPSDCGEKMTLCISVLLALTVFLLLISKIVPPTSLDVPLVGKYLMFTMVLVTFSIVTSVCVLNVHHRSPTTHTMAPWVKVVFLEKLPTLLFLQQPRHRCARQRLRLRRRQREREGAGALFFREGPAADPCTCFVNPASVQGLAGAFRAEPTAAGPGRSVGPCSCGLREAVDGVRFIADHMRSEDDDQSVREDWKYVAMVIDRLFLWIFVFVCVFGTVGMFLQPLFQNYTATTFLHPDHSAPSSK

Neuronal acetylcholine receptor subunit alpha-7, sequence (Q05941 whole entry): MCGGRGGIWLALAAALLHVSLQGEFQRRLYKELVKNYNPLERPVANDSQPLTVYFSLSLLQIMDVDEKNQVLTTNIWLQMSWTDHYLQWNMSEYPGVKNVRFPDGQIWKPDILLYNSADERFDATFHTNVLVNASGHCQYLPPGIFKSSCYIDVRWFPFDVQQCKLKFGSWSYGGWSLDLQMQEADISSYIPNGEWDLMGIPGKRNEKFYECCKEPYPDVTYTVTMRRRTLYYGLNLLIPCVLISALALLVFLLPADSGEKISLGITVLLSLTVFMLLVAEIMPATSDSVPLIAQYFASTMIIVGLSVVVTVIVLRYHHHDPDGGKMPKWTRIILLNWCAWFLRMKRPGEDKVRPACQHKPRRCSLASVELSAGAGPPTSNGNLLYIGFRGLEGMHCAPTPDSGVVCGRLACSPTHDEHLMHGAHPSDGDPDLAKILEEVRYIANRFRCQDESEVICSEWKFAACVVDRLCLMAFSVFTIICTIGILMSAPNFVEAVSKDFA

SMILES	Ki [1]	Ki [2]
COC1=NOC2CC3CNCC(C3)C12 (centres undefined)	170 µM	31 µM
COC1=NOC2CC3CCC(N3)C12 (centres undefined)	68 µM	53 µM
CN1OC2CC3CNCC(C3)C2C1=O (centres undefined)	> 100 µM	79 µM
BrC1=NOC2CC3CNCC(C3)C12 (centres undefined)	28.5 µM	0.92 µM
O=c1cccc2n1C[C@@H]1CNC[C@H]2C1 [CYTISINICLINE]	0.3 µM	0.0004 µM
CC(=O)C1=CC[C@H]2CC[C@@H]1N2	> 10 µM	0.094 µM
COC1=NOC2C3CCC(CC12)N3 (centres undefined)	28.2 µM	4.5 µM
CN1OC2C3CCC(CC2C1=O)N3 (centres undefined)	> 100 µM	100 µM
CN1OC2CC3CCC(N3)C2C1=O (centres undefined)	> 100 µM	50 µM
BrC1=NOC2C3CCC(CC12)N3 (centres undefined)	20 µM	0.75 µM
CN1OC2C3CNCC(C3)CC2C1=O (centres undefined)	9.5 µM	1.8 µM
BrC1=NOC2CC3CCC(N3)C12 (centres undefined)	109 µM	260 µM
